Assay results taken from patent US20220378763A1, “COMPOUND FOR TREATMENT OF ACUTE INFLAMMATION IN THE MYOCARDIUM” (CALPROTECT AB, priority 2019, published 2022).
pIC50: −log10 of the molar value.

How the values were obtained:
[1] = tested on: C57BL/6 mice with coronary artery ligation for 60 minutes followed by reperfusion; assay: Myocardial ischemia (60 minutes)/reperfusion, short-term (3 days) treatment: echocardiography and flow cytometry; assay type: in vivo, mouse
Experimental: (a) C57BL/6 mice with MI induced by coronary artery ligation for 60 minutes followed by reperfusion received three daily i.p. injections of ABR or PBS, starting at the time of reperfusion and administered on days 0, 1 and 2 post-MI. Cardiac function was assessed by echocardiography the day before surgery and on days 3, 7, 14 and 21 in the Sham (n=10), Sham+ABR (n=10), MI (n=22) and MI+3d ABR (n=13) groups. […] (F) Neutrophil and (G) monocyte counts in the bone marrow were increased 2 days after myocardial ischaemia/reperfusion in the MI+3d ABR group (n=6) compared to the MI group treated with PBS (n=6). (H) Neutrophil, (I) monocyte, and (J) macrophage numbers in the myocardium in the MI and MI+3d ABR groups on Day 2 post-MI. […] The P-values refer to the difference between the MI and the MI+3d ABR groups. The P-values for the repeated measurement experiments refer to the difference between the MI and the MI+3d ABR groups, analysed by 2-way ANOVA with Fisher LSD post-hoc evaluation. Only the significant P-values are shown. Data is presented as mean±SD.
Ultrasound measurements were performed at day −1 (baseline), 7, and 21 to assess cardiac function using a Vevo 770 echocardiographic imaging system with a 707B probe (VisualSonics, Toronto, Canada). In selected experiments, additional assessment was performed on days 3 and 14. The mice were anesthetized using 1-3% isoflurane and hair was carefully removed using depilatory cream. To maintain body temperature, the mice were placed in supine position on a heated surface (37° C.). Two-dimensional M-mode images were recorded in the parasternal short-axis view at the mid-papillary level. Five complete cardiac cycles were traced to calculate fractional shortening, ejection fraction, left ventricular systolic volume, and left ventricular diastolic volume by using the VisualSonics software.
Procedures were carried out as outlined in Example 2. In contrast to permanent ischemia, the coronary artery occlusion was maintained for 60 minutes followed by removal of the ligature, allowing for reperfusion of the ischemic myocardium. Three doses of 30 mg/Kg ABR-238901 diluted in PBS were administered by daily i.p. injections at the time of the reperfusion, and after 24 h and 48 h (FIG. 5A).

[2] = tested on: C57BL/6 mice with sepsis induced by bacterial lipopolysaccharide; assay: LPS-induced sepsis: mortality over 7 days; assay type: in vivo, mouse; conditions: 30 mg/kg i.p. at 0 and 6 h after LPS; 7-day period
Experimental: General animal care, induction of sepsis and treatments were performed as described under Example 7. We initially included a total of 10 mice per treatment group, pooled from two independent experiments. To assess mortality after induction of sepsis, the mice were monitored at least three times a day for 7 days. […] The final group size was n=9 mice in the ABR-238901-treated group, and n=10 in the PBS-treated group. The experimental layout is outlined in FIG. 14A. Mice showing clinical signs of terminal illness that fulfilled the pre-specified termination points specified in the ethical permit awarded by the Lund University Ethics Committee were euthanized. Weight loss more than 20% is not considered a clinical sign of terminal illness, but was defined by the Ethical Committee as an experiment termination criterion.

[3] = target: T1, S100A9 binding to TLR4/MD2 (Homo sapiens, UniProt P06702); assay: Surface plasmon resonance (Biacore 3000): inhibition of S100A9 binding to immobilized TLR4; conditions: 50 nM recombinant human S100A9 over immobilized TLR4; response at late dissociation phase
T1 sequence (P06702 1-114): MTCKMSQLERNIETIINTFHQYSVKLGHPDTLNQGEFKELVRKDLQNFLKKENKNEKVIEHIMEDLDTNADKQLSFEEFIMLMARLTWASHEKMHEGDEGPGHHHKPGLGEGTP
Source text: (a) The molecular structure of ABR-238901. (b-c) Surface plasmon resonance measurement of S100A9 binding to immobilized RAGE (b) and TLR4 (c) in the presence of increasing ABR-238901 concentrations. The magnitude of the response for each ABR-238901 concentration (BABR-238901), measured at the late dissociation phase (t 350s), was expressed as percentage of the response in the absence of competitor (BO), and plotted against the concentration of ABR-238901.
Inhibition of S100A9 binding to RAGE and TLR4/MD2 by ABR-238901 was tested by surface plasmon resonance in a Biacore 3000 system (GE Healthcare, Uppsala, Sweden). Briefly, 50 nM of recombinant human S100A9 was injected over immobilized RAGE and TLR4 (2 min at 30 μL/min) in the presence of increasing concentrations of ABR-238901, ranging from 0.0488 to 100 μM. The magnitude of the responses measured at the late dissociation phase (t 350 s) in the presence of ABR-238901 (BABR-238901) were expressed as percentage of response in the absence of competitor (Bo), and plotted against the concentration of ABR-238901 (FIG. 7b-c). The curves were fit to a sigmoidal dose-response model with variable slope in Prism GraphPad for calculation of IC50.

[4] = tested on: C57BL/6 mice with sepsis induced by bacterial lipopolysaccharide; assay: LPS-induced sepsis: plasma cytokines by multiplex assay; assay type: in vivo, mouse; conditions: 24 h after sepsis induction, vs PBS
Experimental: General animal care, induction of sepsis and treatments were performed as described under Example 7. We included 5 mice per treatment group. The mice were sacrificed 24 h after sepsis induction and blood was drawn using cardiac puncture with an EDTA 0.5M coated syringe. Blood was spun down at 3000 rpm for 10 minutes and plasma was collected.
Cytokine measurements were performed using the Cytokine & Chemokine 36-Plex Mouse procartaPlex™ P1A (ThermoFischer Scientific) as per manufacturer's instructions. Data are presented as mean±SD.

[5] = 2 days after ischemia/reperfusion

COc1ncc(S(=O)(=O)Nc2cncc(Cl)c2O)cc1Br [ABR-238901, 5-bromo-N-(5-chloro-4-hydroxypyridin-3-yl)-6-methoxypyridine-3-sulfonamide]
Left ventricular EF ([1]; 30 mg/Kg i.p. at reperfusion, 24 h, 48 h, echocardiography, day 3): 42%
Left ventricular EF, average ([1]; 30 mg/Kg i.p. at reperfusion, 24 h, 48 h, echocardiography, day 7): 45%
Left ventricular EF ([1]; 30 mg/Kg i.p. at reperfusion, 24 h, 48 h, echocardiography, day 21): 48%
Numbers of monocytes in the bone marrow [1, 5]: increased
Numbers of neutrophils in the bone marrow [1, 5]: increased
Average EDV vs MI control ([1]; 3 days treatment): no significant differences
Average ESV vs MI control ([1]; 3 days treatment): no significant differences
Cardiac output, average ([1]; 3 days treatment, day 21): 15.7 mL/min
Macrophage infiltration in the myocardium ([1]; day 2 after ischemia/reperfusion): decreased
Animal survival [2]: 100%
pIC50 [3]: 5.68
Plasma level of GM-CSF [4]: decreased
Plasma level of IFN-γ [4]: decreased
Plasma level of IL17-A [4]: decreased
Plasma level of IL-1b [4]: decreased
Plasma level of IL-6 [4]: decreased
Plasma level of IL-22 [4]: decreased
Plasma level of LIF [4]: decreased
Plasma level of LIX [4]: decreased
Plasma level of MCP-1 [4]: decreased
